Structures are written as SMILES.

The IC50 is the point on the concentration scale where inhibition reaches its midpoint. A low value points to higher potency.

Sequence of H1047R PIK3CA enzyme (P42336 whole entry H1047R): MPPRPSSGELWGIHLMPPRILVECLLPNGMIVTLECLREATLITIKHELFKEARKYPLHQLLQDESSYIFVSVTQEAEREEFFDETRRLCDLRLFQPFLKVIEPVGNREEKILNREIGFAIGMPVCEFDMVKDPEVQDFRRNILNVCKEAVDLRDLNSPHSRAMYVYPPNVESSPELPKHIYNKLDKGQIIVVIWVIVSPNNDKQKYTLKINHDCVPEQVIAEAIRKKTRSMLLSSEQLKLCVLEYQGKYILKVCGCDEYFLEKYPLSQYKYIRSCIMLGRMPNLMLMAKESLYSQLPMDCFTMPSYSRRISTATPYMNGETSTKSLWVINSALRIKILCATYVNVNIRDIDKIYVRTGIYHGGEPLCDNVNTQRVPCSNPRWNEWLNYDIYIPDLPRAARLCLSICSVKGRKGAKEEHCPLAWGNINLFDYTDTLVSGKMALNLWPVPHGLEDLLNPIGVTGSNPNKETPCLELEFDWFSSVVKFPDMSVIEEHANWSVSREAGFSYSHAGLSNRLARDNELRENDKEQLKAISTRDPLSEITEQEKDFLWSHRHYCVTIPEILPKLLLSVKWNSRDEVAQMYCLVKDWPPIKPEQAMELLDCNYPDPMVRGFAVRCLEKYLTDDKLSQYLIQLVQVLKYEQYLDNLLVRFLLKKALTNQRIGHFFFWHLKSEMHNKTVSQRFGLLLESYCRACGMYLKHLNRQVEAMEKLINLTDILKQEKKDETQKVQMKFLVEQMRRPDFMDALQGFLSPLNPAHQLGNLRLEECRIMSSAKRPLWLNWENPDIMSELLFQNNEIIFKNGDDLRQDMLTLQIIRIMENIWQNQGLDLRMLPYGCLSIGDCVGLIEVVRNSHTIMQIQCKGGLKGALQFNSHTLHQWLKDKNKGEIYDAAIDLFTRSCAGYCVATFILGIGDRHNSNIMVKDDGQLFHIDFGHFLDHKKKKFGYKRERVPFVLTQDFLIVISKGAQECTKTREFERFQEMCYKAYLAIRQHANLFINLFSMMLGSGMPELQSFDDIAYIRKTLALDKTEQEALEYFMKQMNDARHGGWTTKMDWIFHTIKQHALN
Sequence of H1047R PIK3CA enzyme (P27986 whole entry partner): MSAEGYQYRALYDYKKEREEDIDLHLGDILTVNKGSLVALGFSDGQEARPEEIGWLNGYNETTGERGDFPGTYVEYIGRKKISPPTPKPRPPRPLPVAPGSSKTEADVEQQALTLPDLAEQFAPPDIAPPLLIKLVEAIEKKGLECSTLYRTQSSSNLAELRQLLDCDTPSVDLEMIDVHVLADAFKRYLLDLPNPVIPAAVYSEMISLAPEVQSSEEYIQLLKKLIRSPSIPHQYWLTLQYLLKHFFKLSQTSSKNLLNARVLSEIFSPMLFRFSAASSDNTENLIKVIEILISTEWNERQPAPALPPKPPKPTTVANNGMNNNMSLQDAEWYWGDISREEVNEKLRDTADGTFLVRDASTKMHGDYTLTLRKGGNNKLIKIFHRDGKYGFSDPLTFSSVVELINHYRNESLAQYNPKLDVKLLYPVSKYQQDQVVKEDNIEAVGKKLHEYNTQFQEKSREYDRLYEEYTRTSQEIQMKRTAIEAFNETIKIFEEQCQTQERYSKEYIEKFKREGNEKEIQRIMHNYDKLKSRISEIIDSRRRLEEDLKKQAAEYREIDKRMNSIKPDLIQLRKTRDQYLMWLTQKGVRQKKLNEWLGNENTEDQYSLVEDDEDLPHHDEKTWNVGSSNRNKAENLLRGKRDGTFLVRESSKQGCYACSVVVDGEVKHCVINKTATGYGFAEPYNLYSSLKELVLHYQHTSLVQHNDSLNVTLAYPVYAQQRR

The assay addresses H1047R PIK3CA enzyme (Homo sapiens, UniProt P42336, H1047R). Kind of assay: ADP-Glo Biochemical PIK3CA Kinase Assay. On the technique in general: ADP-Glo first removes unused ATP, then detects ADP through luciferase.
`CS(=O)(=O)CCc1cc(NC(=O)c2cc(F)cc(C(F)(F)F)c2)c2c(c1)C(=O)NC2c1cc(F)ccc1Cl` (stereo not drawn) [Compound I-1476] showed an IC50 of at most 100 nM. In the case of `Cn1ccc(-c2cc(NC(=O)c3cc(F)cc(C(F)(F)F)c3)c3c(c2)C(=O)N[C@H]3c2cc(F)ccc2Cl)cc1=O` (stereo in doubt) [Compound I-1001], the 50% inhibitory concentration (IC50) lay in the range of 1000 to 10000 nM. In the case of `C[C@H](O)c1cc(-c2ccc3ncnn3c2)cc2c1[C@H](c1cc(F)ccc1Cl)NC2=O` (single isomer, unassigned) [Compound I-2229], the IC50 lay within 10000 to 100000 nM. The figure for `CC[C@@H](CC(=O)Nc1cccc2c1[C@H](c1cc(F)ccc1Cl)NC2=O)[C@H](C)C(F)(F)F` (single isomer, unassigned) [Compound I-2336] is 1000 to 10000 nM. The figure for `O=C(Nc1cc(CS(=O)(=O)Cc2cc[n+]([O-])cc2)cc2c1C(c1cc(F)ccc1Cl)NC2=O)c1cc(F)cc(C(F)(F)F)c1` (stereo not drawn) [Compound I-1471] is at most 100 nM; for `N#Cc1cnc2cnc(-c3cc(NC(=O)c4cc(F)cc(C(F)(F)F)c4)c4c(c3)C(=O)N[C@@H]4c3cc(F)ccc3Cl)cn12` [Compound I-1922] it is 1000 to 10000 nM.

`N#Cc1cnc2ncc(-c3cc(NC(=O)c4cc(F)cc(C(F)(F)F)c4)c4c(c3)C(=O)N[C@@H]4c3cc(F)ccc3Cl)cn12` [Compound I-1858]: the IC50 lay in the range of 500 to 1000 nM. The molecule `COc1cccc(-c2cc(NC(=O)c3cc(F)cc(C(F)(F)F)c3)c3c(c2)C(=O)NC3c2cc(F)ccc2Cl)n1` (stereo not drawn) [Compound I-891] displayed an IC50 of at most 100 nM.

Consider `O=C(Nc1cc(C2CS(=O)(=O)C2)cc2c1C(c1cc(F)ccc1Cl)NC2=O)c1cc(F)cc(C(F)(F)F)c1` (stereo not drawn) [Compound I-1196], for which the IC50 is at most 100 nM. The molecule `O=C(Nc1cc(-c2cn3ncnc3cc2F)cc2c1C(c1cc(F)ccc1Cl)NC2=O)c1cc(F)cc(C(F)(F)F)c1` (stereo not drawn) [Compound I-1652] gave a 50% inhibitory concentration (IC50) of at most 100 nM.

Molecule `CS(=O)(=O)c1ccc(-c2cc(NC(=O)c3cc(F)cc(C(F)(F)F)c3)c3c(c2)C(=O)NC3c2cc(F)ccc2Cl)cn1` (stereo not drawn) [Compound I-1455] registered a half-inhibitory concentration (IC50) of at most 100 nM. The figure for `Cc1ccccc1[C@@H]1NC(=O)c2nccc(NC(=O)N3C[C@@H](C)c4ccccc43)c21` (single isomer, unassigned) [Compound I-303] is 10000 to 100000 nM. `O=C(Nc1cc(-c2cnn(C(F)F)c2)cc2c1C(c1cc(F)ccc1Cl)NC2=O)c1cc(F)cc(Cl)c1` (stereo not drawn) [Compound I-1863] returned an IC50 of at most 100 nM. `O=C1NC(c2cc(F)ccc2Cl)c2c(NC(=O)[C@H](O)c3cc(F)cc(F)c3)cc(Br)cc21` (single isomer, unassigned) [Compound I-804] showed an IC50 of 10000 to 100000 nM.

As to `O=C(Nc1cc(-c2ccc3ncc(C(F)F)n3c2)cc2c1[C@H](c1cc(F)ccc1Cl)NC2=O)c1cc(F)cc(C(F)(F)F)c1` [Compound I-1937], the IC50 was at most 100 nM. The figure for `O=C(Nc1cc(NCCO)cc2c1C(c1cc(F)ccc1Cl)NC2=O)c1cc(F)cc(C(F)(F)F)c1` (stereo not drawn) [Compound I-707] is at most 100 nM; for `CC(C)(C#N)n1cc(-c2cc(NC(=O)c3cc(F)cc(C(F)(F)F)c3)c3c(c2)C(=O)N[C@H]3c2cc(F)ccc2Cl)cn1` (racemic) [Compound I-1661] it is at most 100 nM; for `CNS(=O)(=O)Cc1cc(NC(=O)c2cc(F)cc(C(F)(F)F)c2)c2c(c1)C(=O)NC2c1cc(F)ccc1Cl` (stereo not drawn) [Compound I-1365] it is at most 100 nM. On to `NS(=O)(=O)c1cc(-c2ccc3ncnn3c2)cc2c1C(c1cc(F)ccc1Cl)NC2=O` (stereo not drawn) [Compound I-1970], for which the IC50 lay within 10000 to 100000 nM. The figure for `Cc1ncc(-c2cc(NC(=O)c3cc(F)cc(C(F)(F)F)c3)c3c(n2)C(=O)NC3c2cc(F)ccc2Cl)cn1` (stereo not drawn) [Compound I-584] is at most 100 nM; for `O=C(/C=C/c1ccccc1)Nc1cccc2c1C(c1cc(F)ccc1Cl)NC2=O` (stereo not drawn) [Compound I-2372] it is 10000 to 100000 nM. The figure for `CC(=O)N[C@@H]1CCC[C@H](C(=O)Nc2cc(-c3ccc4ncnn4c3)cc3c2C(c2cc(F)ccc2Cl)NC3=O)C1` (mixture of isomers) [Compound I-1842] is 10000 to 100000 nM; for `Cc1ncc(-c2cc(NC(=O)c3cc(F)cc(C(F)(F)F)c3)c3c(c2)C(=O)N[C@H]3c2cc(F)ccc2Cl)cn1` [Compound I-784] it is at most 100 nM. `CC(C)(O)COc1cc(NC(=O)c2cc(F)cc(C(F)(F)F)c2)c2c(c1)C(=O)NC2c1cc(F)ccc1Cl` (stereo not drawn) [Compound I-709]: the concentration for half-maximal inhibition (IC50) is at most 100 nM.

`O=C1NC(c2cc(F)ccc2Cl)c2c(NC(=O)C3(C(F)(F)F)CC3)cc(Br)cc21` (stereo not drawn) [Compound I-1204] returned an IC50 of 10000 to 100000 nM. The figure for `O=C1N[C@H](c2cc(F)ccc2Cl)c2c(NC(=O)[C@H]3C[C@H](O)C[C@@H](C(F)(F)F)C3)cccc21` (single isomer, unassigned) [Compound I-2178] is 10000 to 100000 nM; for `Cc1c(-c2cc(NC(=O)c3cc(F)cc(C(F)(F)F)c3)c3c(c2)C(=O)N[C@@H]3c2cc(F)ccc2Cl)ccc2ncnn12` [Compound I-1875] it is 1000 to 10000 nM; for `Cc1ccccc1C1NC(=O)c2c(N3CCOCC3)ncc(NC(=O)c3cc(F)cc(C(F)(F)F)c3)c21` (stereo not drawn) [Compound I-253] it is 1000 to 10000 nM.

`O=C1N[C@@H](c2cc(F)ccc2Cl)c2c(NC(=O)N3C[C@H](O)C[C@@H]3CC(F)(F)F)cccc21` (racemic) [Compound I-2162]: the IC50 is 1000 to 10000 nM. The figure for `CCC(=O)Nc1cc(NC(=O)c2cc(F)cc(C(F)(F)F)c2)c2c(c1)C(=O)NC2c1cc(F)ccc1Cl` (stereo not drawn) [Compound I-552] is at most 100 nM. In turn, `O=C(Nc1cccc2c1C(c1cc(F)ccc1Cl)NC2=O)c1cc(F)cc(C(F)(F)F)c1` (stereo not drawn) [Compound I-372] displayed an IC50 of at most 100 nM. Molecule `NCCOc1cc(NC(=O)c2cc(F)cc(C(F)(F)F)c2)c2c(c1)C(=O)NC2c1cc(F)ccc1Cl` (stereo not drawn) [Compound I-1298] gave a half-inhibitory concentration (IC50) of 100 to 500 nM. `O=C(Nc1cccc2c1[C@@H](C1CCCCC1)NC2=O)c1cc(F)cc(C(F)(F)F)c1` [Compound I-2053] gave an IC50 of 10000 to 100000 nM. `O=C1N[C@H](c2cc(F)ccc2Cl)c2c(NC(=O)c3csc4ccccc34)cc(-c3ccc4ncnn4c3)cc21` [Compound I-1685] had an IC50 of 1000 to 10000 nM. `O=C(Nc1cc(-c2cn3ncnc3cc2F)cc2c1[C@@H](c1cc(F)ccc1Cl)NC2=O)c1cc(F)cc(C(F)(F)F)c1` (stereo in doubt) [Compound I-1701] returned an IC50 of 1000 to 10000 nM. The figure for `N#CC1(n2cc(-c3cc(NC(=O)c4cc(F)cc(C(F)(F)F)c4)c4c(c3)C(=O)N[C@H]4c3cc(F)ccc3Cl)cn2)CC1` [Compound I-1886] is at most 100 nM; for `O=C1N[C@@H](c2cc(F)ccc2Cl)c2c(NC(=O)[C@H]3C[C@H](O)C[C@@H](C(F)(F)F)C3)cc(Br)cc21` (single isomer, unassigned) [Compound I-2179] it is 500 to 1000 nM. Turning to `O=C1N[C@@H](c2cc(F)ccc2Cl)c2c(NC(=O)N3C[C@](O)(C(F)F)c4cc(F)ccc43)cc(Cl)cc21` (single isomer, unassigned) [Compound I-2590], the IC50 was in the range of 1000 to 10000 nM. The molecule `O=C1N[C@@H](c2cc(F)ccc2Cl)c2c(NC(=O)N3C[C@H](O)c4ccc(F)cc43)cccc21` (stereo in doubt) [Compound I-2172] yielded a 50% inhibitory concentration (IC50) of 500 to 1000 nM.

Turning to `Cc1ccccc1C1NC(=O)c2c(CCO)ccc(NC(=O)c3nsc4ccccc34)c21` (stereo not drawn) [Compound I-434], the IC50 is at most 100 nM. The figure for `Cn1ccc2cc(-c3cc(NC(=O)c4cc(F)cc(C(F)(F)F)c4)c4c(c3)C(=O)NC4c3cc(F)ccc3Cl)ccc21` (stereo not drawn) [Compound I-853] is 100 to 500 nM. `O=C1N[C@H](c2cc(F)ccc2Cl)c2c(NC(=O)[C@H]3CC(C(F)(F)F)C[C@@H](O)C3)cc(Br)cc21` (single isomer, unassigned) [Compound I-2274]: the half-inhibitory concentration (IC50) was 10000 to 100000 nM. The figure for `O=C(Nc1cc(-c2ccc3nc(C(F)F)nn3c2)cc2c1C(c1cc(F)ccc1Cl)NC2=O)c1cc(F)cc(C(F)(F)F)c1` (stereo not drawn) [Compound I-1938] is at most 100 nM; for `O=C1N[C@H](c2cc(F)ccc2Cl)c2c(NC(=O)N3C[C@H](O)c4ccc(F)cc43)cccc21` (stereo in doubt) [Compound I-2174] it is 10000 to 100000 nM; for `O=C(Nc1cc(-c2ccc3nc(C(F)F)nn3c2)cc2c1[C@@H](c1cc(F)ccc1Cl)NC2=O)c1cc(F)cc(C(F)(F)F)c1` [Compound I-1986] it is 1000 to 10000 nM.

For the molecule `Nc1cc(-c2cc(NC(=O)c3cc(F)cc(C(F)(F)F)c3)c3c(c2)C(=O)NC3c2cc(F)ccc2Cl)ncn1` (stereo not drawn) [Compound I-1089], the IC50 is at most 100 nM. The figure for `N#Cc1cnc2c(F)cc(-c3cc(NC(=O)c4cc(F)cc(C(F)(F)F)c4)c4c(c3)C(=O)N[C@H]4c3cc(F)ccc3Cl)cn12` [Compound I-1856] is at most 100 nM. Consider `Cc1ccccc1C1NC(=O)c2cc(C3(O)CCC3)cc(NC(=O)c3nsc4ccccc34)c21` (stereo not drawn) [Compound I-419], for which the IC50 was at most 100 nM. The figure for `O=C(Nc1cc(-c2cn3ccncc3n2)cc2c1C(c1cc(F)ccc1Cl)NC2=O)c1cc(F)cc(C(F)(F)F)c1` (stereo not drawn) [Compound I-1300] is at most 100 nM; for `O=C(Cc1c[nH]c2ccccc12)Nc1cc(Br)cc2c1C(c1cc(F)ccc1Cl)NC2=O` (stereo not drawn) [Compound I-953] it is 10000 to 100000 nM. With `O=C(Nc1cccc2c1[C@H](CC1CCCC1)NC2=O)c1cc(F)cc(C(F)(F)F)c1` [Compound I-2153], the half-inhibitory concentration (IC50) is 1000 to 10000 nM. With `O=C(Nc1cc(OC(F)F)cc2c1C(c1cc(F)ccc1Cl)NC2=O)c1cc(F)cc(C(F)(F)F)c1` (stereo not drawn) [Compound I-812], the concentration for half-maximal inhibition (IC50) was at most 100 nM.

As for `O=C(CCl)Nc1cc(NC(=O)c2cc(F)cc(C(F)(F)F)c2)c2c(c1)C(=O)NC2c1cc(F)ccc1Cl` (stereo not drawn) [Compound I-407], the IC50 is at most 100 nM. In turn, `O=C(Nc1cc(Br)cc2c1C(c1cc(F)ccc1Cl)NC2=O)c1cc(F)cc(CF)c1` (stereo not drawn) [Compound I-1119] returned an IC50 of 500 to 1000 nM. The figure for `CC1(COc2cc(NC(=O)c3cc(F)cc(C(F)(F)F)c3)c3c(c2)C(=O)NC3c2cc(F)ccc2Cl)COC1` (stereo not drawn) [Compound I-748] is at most 100 nM; for `CN1CCO/C1=N\c1cc(NC(=O)c2cc(F)cc(C(F)(F)F)c2)c2c(c1)C(=O)NC2c1cc(F)ccc1Cl` (stereo not drawn) [Compound I-2202] it is 100 to 500 nM. The figure for `CC(=O)Nc1cc(NC(=O)c2cc(F)cc(C(F)(F)F)c2)c2c(c1)C(=O)NC2c1cc(F)ccc1Cl` (stereo not drawn) [Compound I-423] is at most 100 nM.

The record behind these values is patent US12581252B2, “Substituted pyrrolo[3,4-b]pyridines as PI3K-α inhibitors” (Relay Therapeutics, Inc., priority 2020, dated 2026).
